Ten molecules from patent US11427553B2, “Dihydrooxadiazinones” (Bayer Aktiengesellschaft, priority 2017, dated 2022) can be followed below.

For one assay, the target named is human full length PDE3B (Homo sapiens (Human), UniProt Q13370). The assay can be described thus: Assay 5 PDE3B enzyme inhibition (3H-cAMP SPA). Type of assay: biochemical. The settings on record: Sf9 cell extract. The procedure, abridged: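 Compounds in DMSO are mixed with diluted PDE3B extract from Sf9 cells, and reactions start on adding tritiated cAMP. After 60 min at room temperature, yttrium scintillation proximity beads terminate hydrolysis and signal is counted; IC50 values come from sigmoidal dose-response curves.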
Chain of human full length PDE3B (Q13370 whole entry): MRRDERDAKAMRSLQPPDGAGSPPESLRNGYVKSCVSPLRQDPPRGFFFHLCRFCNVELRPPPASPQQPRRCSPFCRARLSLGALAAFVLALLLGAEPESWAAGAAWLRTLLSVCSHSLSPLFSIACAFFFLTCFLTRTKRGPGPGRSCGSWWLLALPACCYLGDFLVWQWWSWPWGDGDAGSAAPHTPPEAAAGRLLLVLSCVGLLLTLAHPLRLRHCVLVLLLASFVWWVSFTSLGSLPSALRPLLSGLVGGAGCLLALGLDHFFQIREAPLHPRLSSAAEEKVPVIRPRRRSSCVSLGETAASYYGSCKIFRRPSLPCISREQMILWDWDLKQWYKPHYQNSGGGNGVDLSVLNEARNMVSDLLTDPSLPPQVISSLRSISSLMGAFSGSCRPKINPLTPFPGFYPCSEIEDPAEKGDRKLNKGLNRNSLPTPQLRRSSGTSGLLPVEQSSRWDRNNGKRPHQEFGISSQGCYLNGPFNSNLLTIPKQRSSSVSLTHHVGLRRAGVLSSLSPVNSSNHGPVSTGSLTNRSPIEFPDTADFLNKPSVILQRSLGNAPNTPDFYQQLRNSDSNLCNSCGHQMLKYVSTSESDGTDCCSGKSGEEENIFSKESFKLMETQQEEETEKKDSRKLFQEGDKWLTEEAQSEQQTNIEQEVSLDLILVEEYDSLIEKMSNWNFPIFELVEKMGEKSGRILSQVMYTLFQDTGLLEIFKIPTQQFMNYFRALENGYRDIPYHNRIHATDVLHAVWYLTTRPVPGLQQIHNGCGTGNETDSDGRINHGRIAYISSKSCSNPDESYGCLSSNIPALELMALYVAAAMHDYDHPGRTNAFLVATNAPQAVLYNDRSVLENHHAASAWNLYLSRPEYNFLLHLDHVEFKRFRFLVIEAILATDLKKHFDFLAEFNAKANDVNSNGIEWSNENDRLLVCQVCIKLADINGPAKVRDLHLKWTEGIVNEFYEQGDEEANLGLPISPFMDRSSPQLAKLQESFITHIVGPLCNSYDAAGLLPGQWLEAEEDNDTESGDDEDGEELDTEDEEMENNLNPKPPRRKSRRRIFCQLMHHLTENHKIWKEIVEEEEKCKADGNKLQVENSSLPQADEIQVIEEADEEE

A further assay has as its system HeLa cells. In words: Assay 1 cell proliferation measurement (CTG, 72 h), HeLa. The settings on record: Homo sapiens, HeLa; Assay 1, 72 h, Cell Titer Glo; read-out: HeLa IC50 [nM] (Cervical cancer). Type of assay: cell-based, human. The procedure, abridged: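 CTG luminescence readout after 72 h compound exposure at 37 °C; 10-point 2.5-fold dilutions from 100 nM max final; DMSO 0.3% vehicle. IC50 from 4-parameter fit, normalised to 0 h plate (max inhibition) and DMSO (min inhibition).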
(ATP-based viability assays read luminescence as a measure of living cells.)

A further assay deals with SK-MEL-3 cells. In words: Assay 1 cell proliferation measurement (CTG, 72 h), SK-MEL-3. Type of assay: cell-based, human. The settings on record: Homo sapiens, SK-MEL3; Assay 1, 72 h, Cell Titer Glo; read-out: SK-MEL-3 IC50 [nM] (melanoma). How it is done:
Cell Proliferation Measurement
The antiproliferative activity of the compounds of the general formula (I) was examined in vitro in human cancer cells. For this purpose, the appropriate number of cells (Hela: 800; SK-MEL-3: 1000; A549: 800) were plated in 384-well plates with appropriate growth medium ((A549: DMEM/Ham's F12 (Biochrom; #FG 4815 with stabile Glutamine), FCS 10% final (Biochrom; #S 0415); Hela: DMEM/Ham's F12 (Biochrom; #FG 4815 with stabile Glutamine), FCS 10% final (Biochrom; #S 0415); SK-MEL-3: McCoy's 5A (Biochrom; #F 1015), FCS 10% final (Biochrom; #S 0415), L-Alanyl-L-Glutamine final: 2 mM, (Biochrom; #K 0302)) and incubated at 37° C. overnight. After 24 h, cells on one plate (0 h plate) were treated with 30 μl/cavity of CTG solution (Promega Cell Titer Glo (catalogue #G755B and G756B)) and incubated at room temperature for 10 min, and luminescence was measured by means of a VICTOR V (Perkin Elmer), in order to determine cell viability on commencement of treatment. The cells on the test plate were treated with the compounds of the general formula (I) as and incubated at 37° C. for 72 h. The compounds were added to the cells by means of an HP D300 digital dispenser in a 10-step 2.5-fold dilution series generally starting at a maximum final drug concentration of 100 nM. As control, the cells were treated with vehicle (DMSO at 0.3% final concentration). After 72 h, the cells were treated with 30 μl/cavity of CTG solution (Promega Cell Titer Glo (catalogue #G755B and G756B)) and incubated at room temperature for 10 min. and luminescence was measured by means of a VICTOR V (Perkin Elmer), in order to determine cell viability at the end of treatment. The percentage effect on cell growth and the IC50 derived therefrom were determined for each test substance using the values from the 0 h plate […] and the DMSO control […]. The IC50 values were calculated using a 4-parameter fit.

Another assay addresses human full length PDE3A (Homo sapiens (Human), UniProt Q14432). In words: Assay 4 PDE3A enzyme inhibition (3H-cAMP SPA). Type of assay: biochemical. The settings on record: Sf9 cell extract. The procedure, abridged: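 Hydrolysis of [8-3H]cAMP by Sf9-expressed full-length PDE3A was measured by scintillation proximity, with enzyme diluted to keep kinetics linear and substrate consumption below 70%. Incubation ran 60 min at room temperature at pH 7.5.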

SMILES strings stand for the structures.

Chain of human full length PDE3A (Q14432 whole entry): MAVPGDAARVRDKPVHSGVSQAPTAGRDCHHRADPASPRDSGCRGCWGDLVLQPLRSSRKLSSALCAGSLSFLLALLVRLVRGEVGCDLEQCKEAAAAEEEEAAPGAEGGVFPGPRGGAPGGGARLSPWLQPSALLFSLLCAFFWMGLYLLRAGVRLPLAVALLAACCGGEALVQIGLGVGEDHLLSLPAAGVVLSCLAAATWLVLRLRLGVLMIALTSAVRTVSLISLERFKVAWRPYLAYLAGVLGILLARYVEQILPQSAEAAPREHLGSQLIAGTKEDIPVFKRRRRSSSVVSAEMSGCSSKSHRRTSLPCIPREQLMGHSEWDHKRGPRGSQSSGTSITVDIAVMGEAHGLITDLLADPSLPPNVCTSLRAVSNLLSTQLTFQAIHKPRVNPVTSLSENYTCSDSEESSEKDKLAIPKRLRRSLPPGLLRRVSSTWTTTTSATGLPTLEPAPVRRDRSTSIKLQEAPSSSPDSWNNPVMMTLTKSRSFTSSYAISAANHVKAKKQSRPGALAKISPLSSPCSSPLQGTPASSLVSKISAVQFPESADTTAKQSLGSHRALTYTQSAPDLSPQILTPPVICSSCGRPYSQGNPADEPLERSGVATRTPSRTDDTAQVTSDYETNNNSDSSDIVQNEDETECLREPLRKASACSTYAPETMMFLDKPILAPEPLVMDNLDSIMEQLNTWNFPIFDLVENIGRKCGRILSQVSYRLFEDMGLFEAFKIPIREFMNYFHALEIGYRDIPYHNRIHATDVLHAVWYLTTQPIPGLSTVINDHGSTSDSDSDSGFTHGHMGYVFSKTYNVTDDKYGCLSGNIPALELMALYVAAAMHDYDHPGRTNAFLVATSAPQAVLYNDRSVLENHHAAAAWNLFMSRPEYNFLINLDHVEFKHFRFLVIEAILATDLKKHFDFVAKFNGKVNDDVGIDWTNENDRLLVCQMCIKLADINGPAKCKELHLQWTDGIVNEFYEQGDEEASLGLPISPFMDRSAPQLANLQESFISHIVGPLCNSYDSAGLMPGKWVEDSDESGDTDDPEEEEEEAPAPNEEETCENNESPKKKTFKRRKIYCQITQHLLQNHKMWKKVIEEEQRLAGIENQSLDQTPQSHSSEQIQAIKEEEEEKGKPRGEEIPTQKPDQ

One may read the IC50 as the point on the concentration scale where inhibition reaches its midpoint. Regarding `Cc1ccc(-c2ccc(C3=NNC(=O)OC3)cc2OC(F)(F)F)cn1` [Example 70, 5-[4-(6-Methylpyridin-3-yl)-3-(trifluoromethoxy)phenyl]-3,6-dihydro-2H-1,3,4-oxadiazin-2-one], the half-maximal inhibitory concentration (IC50) against human full length PDE3B amounted to 170 nM; in the assay with HeLa cells, 15 nM; with SK-MEL-3 cells it was 29 nM; at human full length PDE3A, 75 nM.
The corresponding values for `O=C1NN=C(c2ccc(-c3ccc(F)c(F)c3F)c(F)c2)CO1` [Example 99, 5-(2,2′,3′,4′-Tetrafluoro[1,1′-biphenyl]-4-yl)-3,6-dihydro-2H-1,3,4-oxadiazin-2-one] are 100 nM, 5 nM, 11 nM and 88 nM.
In the case of `O=C1NN=C(c2ccc(-c3ccc(F)c(F)c3)c(C(F)(F)F)c2)CO1` [Example 61, 5-[3′,4′-Difluoro-2-(trifluoromethyl)biphenyl-4-yl]-3,6-dihydro-2H-1,3,4-oxadiazin-2-one], the IC50 worked out at 320 nM on human full length PDE3B, 10 nM in the assay on HeLa cells, 16 nM with SK-MEL-3 cells and 230 nM against human full length PDE3A.
With `Cc1cc(-c2ccc(C3=NNC(=O)O[C@H]3C)cc2C(F)(F)F)ccn1` [Example 184, (6S)-6-Methyl-5-[4-(2-methylpyridin-4-yl)-3-(trifluoromethyl)phenyl]-3,6-dihydro-2H-1,3,4-oxadiazin-2-one], the IC50 was determined as 57 nM at human full length PDE3B, 5 nM with HeLa cells, 6 nM in the assay on SK-MEL-3 cells and 66 nM on human full length PDE3A.
With `O=C1NN=C(c2ccc(-c3ccc(F)cc3)c(F)c2)CO1` [Example 30, 5-(2,4′-Difluorobiphenyl-4-yl)-3,6-dihydro-2H-1,3,4-oxadiazin-2-one], the IC50 came to 79 nM at human full length PDE3B, 1 nM in the assay on HeLa cells, 4 nM with SK-MEL-3 cells and 99 nM against human full length PDE3A.
The corresponding values for `C[C@@H](O)CNc1ccc(C2=NNC(=O)OC2)cc1C(F)(F)F` [Example 216, 5-[4-{[(2R)-2-Hydroxypropyl]amino}-3-(trifluoromethyl)phenyl]-3,6-dihydro-2H-1,3,4-oxadiazin-2-one] are 167 nM, 6 nM, 7 nM and 103 nM.
Taken in the same sequence, the figures for `Nc1cc(-c2ccc(C3=NNC(=O)OC3)cc2C(F)(F)F)ccc1F` [Example 56, 5-[3′-Amino-4′-fluoro-2-(trifluoromethyl)biphenyl-4-yl]-3,6-dihydro-2H-1,3,4-oxadiazin-2-one] were 80 nM, 5 nM, 10 nM and 180 nM.
As to `C[C@@H]1OC(=O)NN=C1c1ccc(F)c(C(F)(F)F)c1` [Intermediate 75, (6S)-5-(-[(4-Fluoro-3-(trifluoromethyl)phenyl)-)]-6-methyl-3,6-dihydro-2H-1,3,4-oxadiazin-2-one], the IC50 against human full length PDE3B was 710 nM; with HeLa cells, 22 nM; in the assay with SK-MEL-3 cells it was 45 nM; against human full length PDE3A, 240 nM.
As for `Cc1ccc(-c2ccc(C3=NNC(=O)OC3)cc2F)cc1F` [Example 113, 5-(2,3′-Difluoro-4′-methyl[1,1′-biphenyl]-4-yl)-3,6-dihydro-2H-1,3,4-oxadiazin-2-one], the IC50 at human full length PDE3B worked out at 215 nM; in the assay on HeLa cells, 2 nM; in the assay on SK-MEL-3 cells, 6 nM; at human full length PDE3A, 210 nM.
Turning to `O=C1NN=C(c2ccc(NC[C@@H]3CCCO3)c(C(F)(F)F)c2)CO1` [Example 259, 5-[4-({[(2S)-Oxolan-2-yl]methyl}amino)-3-(trifluoromethyl)phenyl]-3,6-dihydro-2H-1,3,4-oxadiazin-2-one], the IC50 was 110 nM against human full length PDE3B, 1 nM in the assay with HeLa cells, 3 nM in the assay with SK-MEL-3 cells and 34 nM against human full length PDE3A.
